Laboratory results taken from patent US8648116B2, “Derivatives of N-(arylamino) sulfonamides including polymorphs as inhibitors of MEK as well as compositions, methods of use and methods for preparing the same” (Ardea Biosciences, Inc., priority 2005, dated 2014).
Read-outs that look alike come from different tables or passages of the source. Marks after values point to notes of the source that are not given here.

Assays:
A375 melanoma tumors = test: Anti-tumor xenograft activity, TGI and TGD (Example 94); type: in vivo, nu/nu mice
Procedure: Human tumors were implanted in nu/nu mice. Compound A was administered orally for 14 days once tumors were approximately 100 mm^3 in size. Tumor growth inhibition (TGI) was determined after 14 days of treatment as the reduction in the size of tumors in treated groups versus vehicle controls. The time to endpoint (TTE) was calculated as the time for the tumor to reach the specified endpoint volume or the last day of the study, whichever came first. Treatment outcome was determined from percent tumor growth delay (% TGD), defined as the percent increase in median TTE of treated versus vehicle-treated control mice. Animals were also monitored for regression responses. Levels of pERK in tumors and brain were determined by Western blots and correlated with plasma levels of Compound A for the pharmacodynamic/pharmacokinetic study. A number of tumor models were evaluated with different doses and dosing regimens. […] The effect of different dosing regimens was evaluated in A375 xenografts.
Female nu/nu mice were implanted with A375 Melanoma, Colo205 Colon Tumor, A431 Epidermoid Tumor or HT-29 Colon Tumor cells, which were allowed to grow to 100-200 mm^3. Compound A or vehicle was administered orally (25 mg/kg, 50 mg/kg or 100 mg/kg), once a day, for 14 days.
Tumor Growth Inhibition for the groups treated with 25 mg/kg Compound A were calculated for the indicated tumor xenografts. Tumor Growth Inhibition was measured at the end of once daily dosing for 14 days and calculated according to:
Female nu/nu mice were implanted with A375 tumor cells, which were allowed to grow to 100-200 mm^3. Compound. […] Tumor Growth Inhibition was measured at the end of once daily dosing for 14 days and calculated according to: […]

human tumor cell lines = test: In vitro cancer screen (SRB; GI50, TGI, LC50); conditions: for CC50: read-out: LC50
[1] = A549/ATCC (Non-Small Cell Lung Cancer)
[2] = EKVX (Non-Small Cell Lung Cancer)
[3] = HOP-62 (Non-Small Cell Lung Cancer)
[4] = HOP-92 (Non-Small Cell Lung Cancer)
[5] = NCI-H23 (Non-Small Cell Lung Cancer)
[6] = NCI-H226 (Non-Small Cell Lung Cancer)
[7] = NCI-H322M (Non-Small Cell Lung Cancer)
[8] = NCI-H460 (Non-Small Cell Lung Cancer)
[9] = NCI-H522 (Non-Small Cell Lung Cancer)

With `COc1cc(F)c(F)c(Nc2ccc(I)cc2F)c1NS(=O)(=O)C1(C[C@H](O)CO)CC1` [Compound A] the “% TGI” value (A375 melanoma tumors; A375 Melanoma xenograft, 25 mg/kg QD oral, 14 days, range from 2 separate studies) was 52-72** %, the “% TGD, significance” value (A375 melanoma tumors; A375 melanoma tumors, 25 or 50 mg/kg once daily (QD)) was “statistically significant” and the “% TGI” value (A375 melanoma tumors; A375 xenografts, 12.5 mg/kg BID) was 79.5%. The “% TGI” value (A375 melanoma tumors; A375 xenografts, 25 mg/kg BID) was 110.1%, the “% TGD” value (A375 melanoma tumors; A375 xenografts, 25 mg/kg QD) was 143% and the “% TGI” value (A375 melanoma tumors; A375 xenografts, 25 mg/kg QD) was 51.7%. The “% TGD” value (A375 melanoma tumors; A375 xenografts, 50 mg/kg QD) was 233%, the “% TGI” value (A375 melanoma tumors; A375 xenografts, 50 mg/kg QD) was 69.9% and the “% TGD” value (A375 melanoma tumors; A375 xenografts, 100 mg/kg orally once every two days) was 91%.
`COc1cc(F)c(F)c(Nc2ccc(I)cc2F)c1NS(=O)(=O)C1(C[C@H](O)CO)CC1` showed a GI50 (human tumor cell lines; 786-0 (Renal Cancer)) of 5.13 µM, a TGI (human tumor cell lines; 786-0 (Renal Cancer)) of 23.442 µM and a GI50 (human tumor cell lines; A498 (Renal Cancer)) of 0.191 µM. It also gave a TGI (human tumor cell lines; A498 (Renal Cancer)) of 4.169 µM, a GI50 (human tumor cell lines; [1]) of 0.589 µM and a TGI (human tumor cell lines; [1]) of 64.565 µM. The GI50 (human tumor cell lines; ACHN (Renal Cancer)) was 0.275 µM, the TGI (human tumor cell lines; ACHN (Renal Cancer)) was 21.878 µM and the GI50 (human tumor cell lines; BT-549 (Breast Cancer)) was 5.75 µM. The TGI (human tumor cell lines; BT-549 (Breast Cancer)) was 20.893 µM, the GI50 (human tumor cell lines; CAKI-1 (Renal Cancer)) was 0.389 µM and the TGI (human tumor cell lines; CAKI-1 (Renal Cancer)) was 26.915 µM. It also gave a GI50 (human tumor cell lines; CCRF-CEM (Leukemia)) of 17.4 µM, a TGI (human tumor cell lines; CCRF-CEM (Leukemia)) of 60.256 µM and a GI50 (human tumor cell lines; DU-145 (Prostate Cancer)) of 2.14 µM. For the same compound, the TGI (human tumor cell lines; DU-145 (Prostate Cancer)) was 22.387 µM, the GI50 (human tumor cell lines; [2]) was 0.214 µM and the TGI (human tumor cell lines; [2]) was 13.804 µM. The GI50 (human tumor cell lines; HCC-2998 (Colon Cancer)) was 0.01 µM, the TGI (human tumor cell lines; HCC-2998 (Colon Cancer)) was 0.035 µM and the GI50 (human tumor cell lines; HCT-15 (Colon Cancer)) was 0.603 µM. It also gave a TGI (human tumor cell lines; HCT-15 (Colon Cancer)) of 16.982 µM, a GI50 (human tumor cell lines; HCT-116 (Colon Cancer)) of 0.195 µM and a TGI (human tumor cell lines; HCT-116 (Colon Cancer)) of 12.589 µM. For the same compound, the GI50 (human tumor cell lines; HL-60(TB) (Leukemia)) was 0.01 µM, the TGI (human tumor cell lines; HL-60(TB) (Leukemia)) was 100.000 µM and the GI50 (human tumor cell lines; [3]) was 0.069 µM. For the same compound, the TGI (human tumor cell lines; [3]) was 12.589 µM, the GI50 (human tumor cell lines; [4]) was 0.047 µM and the TGI (human tumor cell lines; [4]) was 0.324 µM. It also gave a GI50 (human tumor cell lines; HS 578T (Breast Cancer)) of 0.617 µM, a TGI (human tumor cell lines; HS 578T (Breast Cancer)) of 13.490 µM and a GI50 (human tumor cell lines; HT29 (Colon Cancer)) of 0.026 µM. For the same compound, the TGI (human tumor cell lines; HT29 (Colon Cancer)) was 3.090 µM, the GI50 (human tumor cell lines; IGROV1 (Ovarian Cancer)) was 0.018 µM and the TGI (human tumor cell lines; IGROV1 (Ovarian Cancer)) was 0.295 µM. It also gave a GI50 (human tumor cell lines; K-562 (Leukemia)) of 6.61 µM, a TGI (human tumor cell lines; K-562 (Leukemia)) of 100.000 µM and a GI50 (human tumor cell lines; KM12 (Colon Cancer)) of 0.229 µM. It also gave a TGI (human tumor cell lines; KM12 (Colon Cancer)) of 13.490 µM, a GI50 (human tumor cell lines; LOX IMVI (Melanoma)) of 0.195 µM and a TGI (human tumor cell lines; LOX IMVI (Melanoma)) of 10.715 µM. For the same compound, the GI50 (human tumor cell lines; M14 (Melanoma)) was 0.015 µM, the TGI (human tumor cell lines; M14 (Melanoma)) was 0.166 µM and the GI50 (human tumor cell lines; MALME-3M (Melanoma)) was 0.01 µM. The TGI (human tumor cell lines; MALME-3M (Melanoma)) was 0.014 µM, the GI50 (human tumor cell lines; MCF7 (Breast Cancer)) was 11 µM and the TGI (human tumor cell lines; MCF7 (Breast Cancer)) was 30.903 µM. The GI50 (human tumor cell lines; MDA-MB-231 (Breast Cancer)) was 0.069 µM, the TGI (human tumor cell lines; MDA-MB-231 (Breast Cancer)) was 10.471 µM and the GI50 (human tumor cell lines; MDA-MB-435 (Breast Cancer)) was 0.035 µM. For the same compound, the TGI (human tumor cell lines; MDA-MB-435 (Breast Cancer)) was 12.303 µM, the GI50 (human tumor cell lines; MDA-MB-468 (Breast Cancer)) was 0.019 µM and the TGI (human tumor cell lines; MDA-MB-468 (Breast Cancer)) was 10.233 µM. It also gave a GI50 (human tumor cell lines; MOLT-4 (Leukemia)) of 11 µM, a TGI (human tumor cell lines; MOLT-4 (Leukemia)) of 69.183 µM and a GI50 (human tumor cell lines; [5]) of 0.056 µM. The TGI (human tumor cell lines; [5]) was 2.884 µM, the GI50 (human tumor cell lines; [6]) was 3.31 µM and the TGI (human tumor cell lines; [6]) was 24.547 µM. It also gave a GI50 (human tumor cell lines; [7]) of 0.162 µM, a TGI (human tumor cell lines; [7]) of 15.488 µM and a GI50 (human tumor cell lines; [8]) of 3.63 µM. The TGI (human tumor cell lines; [8]) was 19.498 µM, the GI50 (human tumor cell lines; [9]) was 5.25 µM and the TGI (human tumor cell lines; [9]) was 29.512 µM. For the same compound, the GI50 (human tumor cell lines; NCI/ADR-RES (Breast Cancer)) was 3.47 µM, the TGI (human tumor cell lines; NCI/ADR-RES (Breast Cancer)) was 25.704 µM and the GI50 (human tumor cell lines; OVCAR-3 (Ovarian Cancer)) was 2.51 µM. For the same compound, the TGI (human tumor cell lines; OVCAR-3 (Ovarian Cancer)) was 17.783 µM, the GI50 (human tumor cell lines; OVCAR-4 (Ovarian Cancer)) was 0.562 µM and the TGI (human tumor cell lines; OVCAR-4 (Ovarian Cancer)) was 16.218 µM. The GI50 (human tumor cell lines; OVCAR-5 (Ovarian Cancer)) was 0.017 µM, the TGI (human tumor cell lines; OVCAR-5 (Ovarian Cancer)) was 12.023 µM and the GI50 (human tumor cell lines; PC-3 (Prostate Cancer)) was 8.13 µM. For the same compound, the TGI (human tumor cell lines; PC-3 (Prostate Cancer)) was 37.154 µM, the GI50 (human tumor cell lines; RPMI-8226 (Leukemia)) was 26.9 µM and the TGI (human tumor cell lines; RPMI-8226 (Leukemia)) was 100.000 µM. It also gave a GI50 (human tumor cell lines; SF-268 (CNS Cancer)) of 2.57 µM, a TGI (human tumor cell lines; SF-268 (CNS Cancer)) of 25.704 µM and a GI50 (human tumor cell lines; SF-295 (CNS Cancer)) of 9.33 µM. For the same compound, the TGI (human tumor cell lines; SF-295 (CNS Cancer)) was 23.442 µM, the GI50 (human tumor cell lines; SF-539 (CNS Cancer)) was 1.51 µM and the TGI (human tumor cell lines; SF-539 (CNS Cancer)) was 20.417 µM. It also gave a GI50 (human tumor cell lines; SK-MEL-5 (Melanoma)) of 0.062 µM, a TGI (human tumor cell lines; SK-MEL-5 (Melanoma)) of 13.804 µM and a GI50 (human tumor cell lines; SK-MEL-28 (Melanoma)) of 0.028 µM. It also gave a TGI (human tumor cell lines; SK-MEL-28 (Melanoma)) of 0.214 µM, a GI50 (human tumor cell lines; SK-OV-3 (Ovarian Cancer)) of 12.9 µM and a TGI (human tumor cell lines; SK-OV-3 (Ovarian Cancer)) of 41.687 µM. For the same compound, the GI50 (human tumor cell lines; SN12C (Renal Cancer)) was 0.851 µM, the TGI (human tumor cell lines; SN12C (Renal Cancer)) was 18.621 µM and the GI50 (human tumor cell lines; SNB-19 (CNS Cancer)) was 0.251 µM. It also gave a TGI (human tumor cell lines; SNB-19 (CNS Cancer)) of 24.547 µM, a GI50 (human tumor cell lines; SNB-75 (CNS Cancer)) of 0.302 µM and a TGI (human tumor cell lines; SNB-75 (CNS Cancer)) of 4.467 µM. For the same compound, the GI50 (human tumor cell lines; SR (Leukemia)) was 38 µM, the TGI (human tumor cell lines; SR (Leukemia)) was 100.000 µM and the GI50 (human tumor cell lines; SW-620 (Colon Cancer)) was 0.039 µM. For the same compound, the TGI (human tumor cell lines; SW-620 (Colon Cancer)) was 12.589 µM, the GI50 (human tumor cell lines; T-47D (Breast Cancer)) was 4.9 µM and the TGI (human tumor cell lines; T-47D (Breast Cancer)) was 38.019 µM. The GI50 (human tumor cell lines; TK-10 (Renal Cancer)) was 0.224 µM, the TGI (human tumor cell lines; TK-10 (Renal Cancer)) was 23.442 µM and the GI50 (human tumor cell lines; U251 (CNS Cancer)) was 0.891 µM. It also gave a TGI (human tumor cell lines; U251 (CNS Cancer)) of 17.378 µM, a GI50 (human tumor cell lines; UACC-62 (Melanoma)) of 0.014 µM and a TGI (human tumor cell lines; UACC-62 (Melanoma)) of 0.170 µM. For the same compound, the GI50 (human tumor cell lines; UACC-257 (Melanoma)) was 0.02 µM, the TGI (human tumor cell lines; UACC-257 (Melanoma)) was 10.233 µM and the GI50 (human tumor cell lines; UO-31 (Renal Cancer)) was 0.158 µM. It also gave a TGI (human tumor cell lines; UO-31 (Renal Cancer)) of 11.482 µM, a CC50 (human tumor cell lines; HCT-15 (Colon Cancer)) of 60.3 µM and a CC50 (human tumor cell lines; HT29 (Colon Cancer)) of 29.5 µM. The CC50 (human tumor cell lines; M14 (Melanoma)) was 29.5 µM, the CC50 (human tumor cell lines; MDA-MB-435 (Breast Cancer)) was 41.7 µM and the CC50 (human tumor cell lines; SF-539 (CNS Cancer)) was 60.3 µM. It also gave a CC50 (human tumor cell lines; SK-MEL-28 (Melanoma)) of 22.4 µM and a CC50 (human tumor cell lines; UACC-62 (Melanoma)) of 20.9 µM.
